In patent publication US9480688B2, “Pheromone compositions and their use to modify behavior in different vertebrate species” (priority 2011, dated 2016):

What was measured:
barking/jumping dogs = assay: Aerosol spray test on barking/jumping dogs in a kennel; type: in vivo, dog; conditions: for % Effective (no barking/jumping within 1 minute): 6 dogs
Procedure: An aerosol spray composition comprising Androstenone solution was prepared in accordance with Example 1, but was then diluted in isopropyl alcohol to obtain a 1:1,000 dilution of the original concentration. The purpose of the dilution was to mask the odor of the Androstenone, which can be smelled by humans at high concentrations. The spray solution was placed in a metal aerosol can pressurized with propane. A noise making device was also added to the aerosol can. The propellant, when forced through small holes, caused a sound that exceeded 70 decibels.
The efficacy of an aerosol spray composition containing Androstenone was tested in a commercial research facility housing a large number of dogs. A designated person walked the aisles of the kennel with a calm dog on a leash in order to identify those dogs that met the criteria of barking/jumping. The calm dog on the leash was walked in the center aisle between kennels and also sat outside the kennels. To qualify as a test subject, a dog had to repeatedly jump and bark while the calm dot and the person were in the aisle. A total of 15 dogs were chosen as test subjects.
The dogs were separated into two treatment groups. […] The dogs in treatment group #2 were treated, when observed to be engaging in barking/jumping behavior, with a loud spray canister to which the diluted spray composition containing Androstenone had been added. The test period was for 1 minute.

weaning foals = assay: Ointment test on weaning foals, behavioral observations; type: in vivo, horse; parameters: increase of vocalizations compared to control treatment: concentration or dose not given beside the values
Procedure: A total of 20 foals divided into two groups (Group A, n=10; Group B, n=10) were weaned in pens of similar size and at the same time of the day (9 am), and were evaluated using a control and pheromone compositions. All horses were between 5 and 6 months of age and mixed breeds, primarily quarter horses. An ointment form of the composition comprising Androstenone was prepared in accordance with Table 7 for administering to the horses in this study.
An ointment composition containing a different pheromone, 2-methylbut-2-enal (RP, 1 mg/mL), was also prepared for administration in a comparison study. An ointment containing no pheromone was prepared and used as control (CON). In group A, 5 foals were used for the control treatment, 3 foals were used for the RP treatment, and 2 foals were used for the Androstenone treatment. In group B, 3 foals were used for the control treatment, 3 foals were used for the RP treatment, and 4 foals were used for the Androstenone treatment. As such, a total of 8 foals were used for the control treatment, 6 foals were used for the RP treatment, and 6 foals were used for the Androstenone treatment in this entire study. Both of the pheromone formulations and the control were applied to each nostril. Control treatments were administered first to prevent any cross contamination to horses during day two.
Behavioral observations were taken during the first 10 minutes (Group A and Group B) and then for four hours (Group B only) after the mares were separated from their foals. Foal behavior was recorded every minute during the first hour (or 10 minutes) and every 5 minutes for the remaining 3 hours of the study for Group B.
Behaviors were not mutually exclusive.
The number of shocks received by the electric fence (as foals tried to return to their mare) and vocalizations were recorded continuously. The total number of observations of each defined behaviors over the first 4 hours in Group B is presented in Table 9, which also provides the percentage of each behavior over the total number of recorded number of behaviors.

younger pigs = conditions: cited from earlier work
head shy horses = assay: Aerosol spray test on head shy horses, scored 1 through 5; type: in vivo, horse; conditions: for Did not work / Partially worked / Worked well: % of horses
Procedure: The spray solution was placed in a pressurized metal aerosol can. In one group of aerosol cans, a noise making device was also added to the aerosol can. The propellant, when forced through small holes upon pressing the nozzle, caused a sound that exceeded 70 decibels. In a second group of aerosol cans, the noise making device was not added to the can, such that when the spray composition was pumped, no noise was made.
The efficacy of an aerosol spray composition containing Androstenone was tested using thirteen adult horses, all of which were enrolled in this study after being evaluated and categorized as head shy and hard to handle (i.e., observed to move their heads away from the handler when the handler attempted to touch their heads with his hand or a halter).
The thirteen horses were sorted into two treatment groups. One group (Group 1) of 10 horses received the Androstenone spray composition outlined in Table 4 and control (CON isopropyl alcohol) with noise (n=10), while the second group (Group 2) received the Androstenone spray and control without noise (n=3).
In each group, the control composition was administered to the horses first and then the Androstenone spray was administered to the horses the following day immediately before the handler attempted to touch their ears and heads. The horses' behavior was then recorded and evaluated after each administration. The horses were given a numerical score of 1 through 5.

anxious dogs = assay: Heart rate of anxious dogs after Androstenone spray (telemetry); type: in vivo, dog; conditions: four anxious dogs, 10 minutes following spray with about 0.1 μg/mL Androstenone in isopropyl alcohol
Procedure: A study was conducted to determine whether dogs' heart rate increased following application with an aerosol spray containing Androstenone.
An aerosol spray was prepared which contained about 0.1 μg/mL of Androstenone and isopropyl alcohol using the formulation provided in Example 1.
Four dogs determined to be “anxious” were fit with telemetry jackets and transmitters in order to continually monitor heart rate. Dot heart rates were measured for 10 minutes before treatment, 10 minutes following treatment with a control spray (isopropyl alcohol only), and 10 minutes following treatment with the test spray containing Androstenone and isopropyl alcohol.

[1] = Group B, first 4 hours after weaning
[2] = Group B, first 4 hours after weaning, ointment in each nostril
[3] = first 10 minutes post weaning (n = 20)
[4] = first 10 minutes post weaning, Group A and Group B (n = 20)
[5] = Group 1, spray with noise, n=10
[6] = Group 1, spray with noise, n=10, listed as Pheromone
[7] = Group 2, no noise, n=3, listed as Pheromone

C[C@]12CCC(=O)C[C@@H]1CC[C@@H]1[C@@H]2CC[C@]2(C)C=CC[C@@H]12 [Androstenone, 5-α-androst-16-en-3-one]
% Effective (no barking/jumping within 1 minute) (barking/jumping dogs; Group 2: loud spray plus Androstenone, aerosol diluted 1:1,000 in isopropyl alcohol, applied in facial/snout region): 100%
% Effective (no barking/jumping within 1 minute) (barking/jumping dogs; Group 3: placebo first, then Androstenone spray (re-spray of dogs not responding to placebo)): 83.5%
% Effective (no barking/jumping within 1 minute), overall Androstenone efficacy (barking/jumping dogs; all dogs that received the Androstenone spray (11 of 12 responded)): 91.7%
observed effect on barking/jumping (barking/jumping dogs; diluted Androstenone spray, dogs): immediate cessation of barking/jumping
time barking/jumping stopped before barking resumed (barking/jumping dogs; the one dog that did not respond by the 60 second criterion, after Androstenone spray): 40 s
reduction of head shaking compared to control ointment (weaning foals; 4 hour period after weaning): 100%
reduction of pacing compared to control ointment (weaning foals; 4 hour period after weaning): 100%
reduction of trotting/running compared to control ointment (weaning foals; 4 hour period after weaning): 100%
increase of feeding behavior compared to control (weaning foals; 4 hour period after weaning, % of observations eating hay): 98%
Percent of observations: defecation (weaning foals; [1]): 0.0%
Percent of observations: drink (weaning foals; [1]): 0.0%
Percent of observations: feeding (weaning foals; [1]): 11.3%
Percent of observations: fight (weaning foals; [1]): 0.0%
Percent of observations: head shake (weaning foals; [1]): 0.0%
Percent of observations: interact (weaning foals; [1]): 0.8%
Percent of observations: lying (weaning foals; [1]): 0.0%
Percent of observations: pace (weaning foals; [1]): 0.0%
Percent of observations: paw (weaning foals; [1]): 0.0%
Percent of observations: shock (weaning foals; [1]): 0.8%
Percent of observations: stand (weaning foals; [1]): 58.8%
Percent of observations: trot (weaning foals; [1]): 0%
Percent of observations: vocal (weaning foals; [1]): 19.0%
Percent of observations: walk (weaning foals; [1]): 9.2%
Total observations: defecation (weaning foals; [2]): 0
Total observations: drink (weaning foals; [2]): 0
Total observations: feeding (weaning foals; [2]): 27
Total observations: fight (weaning foals; [2]): 0
Total observations: head shake (weaning foals; [2]): 0
Total observations: interact (weaning foals; [2]): 2
Total observations: lying (weaning foals; [2]): 0
Total observations: pace (weaning foals; [2]): 0
Total observations: paw (weaning foals; [2]): 0
Total observations: shock (weaning foals; [2]): 2
Total observations: stand (weaning foals; [2]): 141
Total observations: trot (weaning foals; [2]): 0
Total observations: vocal (weaning foals; [2]): 46
Total observations: walk (weaning foals; [2]): 22
Percent of observations: trot (weaning foals; Group B, first 4 hours after weaning, listed as Pheromone A): 0.0%
Percent of observations: defecation (weaning foals; [3]): 0.0%
Percent of observations: drink (weaning foals; [3]): 0.0%
Percent of observations: eat (weaning foals; [3]): 0.0%
Percent of observations: fight (weaning foals; [3]): 0.0%
Percent of observations: head shake (weaning foals; [3]): 0.0%
Percent of observations: interact (weaning foals; [3]): 0.0%
Percent of observations: lying (weaning foals; [3]): 0.0%
Percent of observations: pace (weaning foals; [3]): 0.0%
Percent of observations: paw (weaning foals; [3]): 0.0%
Percent of observations: shock (weaning foals; [3]): 0.0%
Percent of observations: stand (weaning foals; [3]): 81.8%
Percent of observations: trot (weaning foals; [3]): 0.0%
Percent of observations: vocal (weaning foals; [3]): 37.1%
Percent of observations: walk (weaning foals; [3]): 18.2%
Total observations: defecation (weaning foals; [4]): 0
Total observations: drink (weaning foals; [4]): 0
Total observations: eat (weaning foals; [4]): 0
Total observations: fight (weaning foals; [4]): 0
Total observations: head shake (weaning foals; [4]): 0
Total observations: interact (weaning foals; [4]): 0
Total observations: lying (weaning foals; [4]): 0
Total observations: pace (weaning foals; [4]): 0
Total observations: paw (weaning foals; [4]): 0
Total observations: shock (weaning foals; [4]): 0
Total observations: stand (weaning foals; [4]): 18
Total observations: trot (weaning foals; [4]): 0
Total observations: vocal (weaning foals; [4]): 13
Total observations: walk (weaning foals; [4]): 4
effect on aggressive behavior (younger pigs): reduces aggressive behavior
horses showing improvement, either fully or partially, in head shy behavior (head shy horses; [5]): 80%
Did not work (head shy horses; [5]): 20%
Partially worked (head shy horses; [5]): 20%
Worked well (head shy horses; [5]): 60%
Did not work (head shy horses; [6]): 20%
Partially worked (head shy horses; [6]): 20%
Worked well (head shy horses; [6]): 60%
Avg. Score (head shy horses; Group 1, spray with noise, n=10, score 1 (little to no effect) to 5 (easier to handle)): 3.9
horses showing improvement, either fully or partially, in head shy behavior (head shy horses; Group 2, no noise, n=3): 100%
Did not work (head shy horses; Group 2, no noise, n=3): 0%
Partially worked (head shy horses; Group 2, no noise, n=3): 33%
Worked well (head shy horses; Group 2, no noise, n=3): 66%
Partially worked (head shy horses; [7]): 33%
Worked well (head shy horses; [7]): 67%
Avg. Score (head shy horses; Group 2, spray with no noise, n=3, score 1 to 5): 3.9
effect on heart rate (anxious dogs): no significant effect

CC=C(C)C=O [RP, 2-methylbut-2-enal, reference compound]
increase of vocalizations compared to control treatment (weaning foals; 4 hour period after weaning): 372%
effect on feeding (eating hay) (weaning foals; 4 hour period after weaning, compared to control): decreased
Percent of observations: defecation (weaning foals; [1]): 0.3%
Percent of observations: drink (weaning foals; [1]): 0.3%
Percent of observations: feeding (weaning foals; [1]): 2.9%
Percent of observations: fight (weaning foals; [1]): 0.0%
Percent of observations: head shake (weaning foals; [1]): 0.1%
Percent of observations: interact (weaning foals; [1]): 0.0%
Percent of observations: lying (weaning foals; [1]): 0.0%
Percent of observations: pace (weaning foals; [1]): 1.4%
Percent of observations: paw (weaning foals; [1]): 0.0%
Percent of observations: shock (weaning foals; [1]): 1.0%
Percent of observations: stand (weaning foals; [1]): 30.8%
Percent of observations: trot (weaning foals; [1]): 3.1%
Percent of observations: vocal (weaning foals; [1]): 58.6%
Percent of observations: walk (weaning foals; [1]): 1.4%
Total observations: defecation (weaning foals; [2]): 2
Total observations: drink (weaning foals; [2]): 2
Total observations: feeding (weaning foals; [2]): 21
Total observations: fight (weaning foals; [2]): 0
Total observations: head shake (weaning foals; [2]): 1
Total observations: interact (weaning foals; [2]): 0
Total observations: lying (weaning foals; [2]): 0
Total observations: pace (weaning foals; [2]): 10
Total observations: paw (weaning foals; [2]): 0
Total observations: shock (weaning foals; [2]): 7
Total observations: stand (weaning foals; [2]): 220
Total observations: trot (weaning foals; [2]): 22
Total observations: vocal (weaning foals; [2]): 422
Total observations: walk (weaning foals; [2]): 10
increase of vocalizations over controls (weaning foals; first 10 minutes after weaning): 42 fold
Percent of observations: defecation (weaning foals; [3]): 0.0%
Percent of observations: drink (weaning foals; [3]): 0.0%
Percent of observations: eat (weaning foals; [3]): 0.0%
Percent of observations: fight (weaning foals; [3]): 0.0%
Percent of observations: head shake (weaning foals; [3]): 0.0%
Percent of observations: interact (weaning foals; [3]): 0.0%
Percent of observations: lying (weaning foals; [3]): 0.0%
Percent of observations: pace (weaning foals; [3]): 6.1%
Percent of observations: paw (weaning foals; [3]): 0.0%
Percent of observations: shock (weaning foals; [3]): 3.3%
Percent of observations: stand (weaning foals; [3]): 24.2%
Percent of observations: trot (weaning foals; [3]): 66.7%
Percent of observations: vocal (weaning foals; [3]): 69.7%
Percent of observations: walk (weaning foals; [3]): 3.0%
Total observations: defecation (weaning foals; [4]): 0
Total observations: drink (weaning foals; [4]): 0
Total observations: eat (weaning foals; [4]): 0
Total observations: fight (weaning foals; [4]): 0
Total observations: head shake (weaning foals; [4]): 0
Total observations: interact (weaning foals; [4]): 0
Total observations: lying (weaning foals; [4]): 0
Total observations: pace (weaning foals; [4]): 2
Total observations: paw (weaning foals; [4]): 0
Total observations: shock (weaning foals; [4]): 4
Total observations: stand (weaning foals; [4]): 8
Total observations: trot (weaning foals; [4]): 22
Total observations: vocal (weaning foals; [4]): 85
Total observations: walk (weaning foals; [4]): 1
